# Patent US20200022963A1, “PHARMACEUTICAL COMPOSITION COMPRISING BETAHISTINE” (Otolanum AG, priority 2017, published 2020)
# Like-named read-outs stand apart in the source and are kept apart here.
# Assays:
# [1] = cited from earlier work
# [2] = Relative bioavailability of intranasal versus oral betahistine in humans, Example 6; type: in vivo; conditions: human
# [3] = Single-dose and repeat-dose intranasal toxicology study in beagle dogs (safety); type: in vivo; conditions: dog
# Description: Salivation after betahistine treatment was previously reported to occur in dogs, it was transient in nature in the present study and resolved quickly. Body weights, clinical pathology and gross necropsy findings were unremarkable.
# [4] = Single ascending-dose clinical trial of intranasal betahistine in healthy volunteers (safety); type: in vivo; conditions: human
# Procedure: (§1) The safety and pharmacokinetic profile of intranasal betahistine was further evaluated in a double-blind, randomized, placebo-controlled, single ascending-dose clinical trial involving a total of 32 healthy male and female volunteers. The main inclusion criteria were that subjects had to be aged 18-45 years and show a body mass index within the range of 18-30 kg/m^2. Subjects were required to fast for 8 hours prior to study drug administration and for 2 hours post-dose.
# (§2) The betahistine was supplied as a 50 and 200 mg/mL solution in a HDPE bottle and spray pump pack (Aptar Classic Line) that delivers an accurate 100 μL per actuation. The study drug was delivered into the right nostril of subjects while they were in a supine position. For the 5 and 20 mg doses, one application of 50 and 200 mg/mL, respectively, was needed, whereas for the 10 and 40 mg doses, two applications of 50 and 200 mg/mL were required.
# [5] = Single ascending-dose clinical trial of intranasal betahistine in healthy volunteers (plasma pharmacokinetics, LC-MS/MS); conditions: human; for half-life / AUC / AUC(0-inf) / AUC(0-t) / Cmax / Tmax: both, plasma, inhaled or intranasal
# Procedure: as §1, §2
# Serial blood samples were collected through 24 hours, following dosing on Day 1, at Day 4 and Day 7 to determine concentrations of betahistine and its main metabolite, 2-PAA in plasma. Plasma samples were assayed for BH content using validated procedures and methods. Blood samples (6 mL) were collected into tubes containing K2EDTA and were centrifuged at approximately 2000 g for 10 minutes at +4° C. and the resultant plasma transferred into 2 clean, labelled 2 mL cryovials. All plasma samples were stored at −70° C. or below until all samples had been collected and sent as a single batch for analysis. […] Concentrations were determined using liquid chromatographic tandem mass spectrometry (LC-MS/MS; SCIEX API 5000 for betahistine and SCIEX API 4000 for 2-PAA) with a validated method. Betahistine-^13CD3 dihydrochloride and 2-PAA-D4 hydrochloride served as internal standards. The standard calibration range—using a plasma sample volume of 0.2 and 0.1 mL, respectively—for betahistine was 10 to 800 pg/mL and for 2-PAA it was 2 to 2000 ng/mL. The limit of quantitation was 10 pg/mL for betahistine and 2.0 ng/mL for 2-PAA.
# In case of betahistine, the method involved a liquid-liquid extraction; in case of 2-PAA it involved protein precipitation. For betahistine, plasma samples were extracted under basic conditions with an organic solvent; the organic phase was dried and reconstituted in reconstitution solvent. Approximately 0.120 mL of the aqueous layer was transferred into polypropylene vials for LC-MS/MS analysis. For 2-PAA plasma samples were precipitated with a mixture of organic solvents, supernatant was diluted and 0.120 mL was transferred into polypropylene vials for LC-MS/MS analysis. Sample analysis was conducted using reversed phase chromatography.
# For each subject who completed the study, plasma concentration-time data of betahistine and 2-PAA were used for the calculation of the following pharmacokinetic parameters: • Cmax Maximum observed plasma concentration obtained directly from the data. • tmax Time to maximum observed concentration, taken directly from the data. If the maximum plasma concentration occurred at more than one time point, the first was chosen. • AUC0-last Area under the plasma concentration versus time curve, calculated using the linear trapezoidal rule from time 0 to time t, where t is the time of last quantifiable concentration. • λz Terminal elimination rate constant obtained from the slope of the line, fitted by linear least squares regression through the terminal points of the logarithmic concentration-time profiles (sometimes also referred to as kel). • AUC0-inf Area under the plasma concentration versus time curve from zero to infinity, calculated as (AUC0-t+Ct/λz), where Ct is the last quantifiable concentration. • t1/2 Apparent terminal half-life, calculated as t1/2=ln(2)/λz.
# Dose normalized parameters Cmax/Dose and AUC/Dose were also calculated.
# [6] = both, beagle, dog, in vivo, 1 h
# Procedure: The safety and pharmacokinetic profile of intranasal betahistine was first evaluated in a single dose toxicology study in male and female beagle dogs (14-21 months of age, weight 8.2-11.8 kg). Both the vehicle and test article were delivered in a single dose via a nasal spray pump (Aptar Classic Line) with a delivery volume of 100 μL into both nostrils at total dose levels of 0 (vehicle), 4, 20 or 80 mg of betahistine dihydrochloride. Each treatment group was made up of 1 dog/sex.
# Plasma concentrations were measured with liquid chromatographic tandem mass spectrometry (LC-MS/MS; SCIEX API 5000 for betahistine and SCIEX API 4000 for 2-pyridylacetic acid (2-PAA)) with a validated method. Betahistine-^13CD3 dihydrochloride and 2-PAA-D4 hydrochloride served as internal standards. The standard calibration range—using a plasma sample volume of 0.05 mL—for betahistine was 0.05 to 50 ng/mL and for 2-PAA it was 1 to 1000 ng/mL. The limit of quantitation was 0.05 ng/mL for betahistine and 1.0 ng/mL for 2-PAA.
# In case of betahistine, the method involved a liquid-liquid extraction; in case of 2-PAA it involved protein precipitation. For betahistine, plasma samples were extracted under basic conditions with an organic solvent; the organic phase was dried and reconstituted in reconstitution solvent. Approximately 0.1 mL of the aqueous layer was transferred into polypropylene vials for LC-MS/MS analysis. For 2-PAA, plasma samples were precipitated with a mixture of organic solvents, supernatant was diluted and 0.12 mL was transferred into polypropylene vials for LC-MS/MS analysis. Sample analysis was conducted using reversed phase chromatography.
# [7] = Relative bioavailability of intranasal versus oral betahistine in humans, Example 6; type: in vivo; conditions: human; remark: listed apart in the source
# Procedure: (Journal of Psychopharmacology, 2016, Vol. 30(3) 237-241). In brief, in this study, forty-eight healthy women were recruited and randomized to receive per os (i.e. orally) either betahistine 144 mg/day (48 mg t.i.d.) or matching placebo for 4 weeks. […] Study medication (betahistine or matching placebo) was administered at least 30 minutes prior to eating. On Day 8, blood samples of 6 mL each were collected at 8 am, and 30, 60, 150 and 300 minutes thereafter. Plasma concentrations of betahistine and its metabolite 2-PAA were determined by high-performance liquidy chromatography.
# [8] = Oral betahistine study in healthy women, Barak et al.; type: in vivo; conditions: human, oral 48 mg (0.8 mg/kg), Barak et al. data
# Procedure: For the calculation of the relative bioavailability of intranasal betahistine compared to peroral betahistine, the area under the concentration-time curve (AUC) determined in Example 3 was compared to the AUC determined in a study with oral betahistine in healthy volunteers described in Barak et al. (Journal of Psychopharmacology, 2016, Vol. 30(3) 237-241). In brief, in this study, forty-eight healthy women were recruited and randomized to receive per os (i.e. orally) either betahistine 144 mg/day (48 mg t.i.d.) or matching placebo for 4 weeks. Their mean weight was 60.2 kg in the active-treated group (n=24) and 59.8 kg in the placebo group (n=24). Study medication (betahistine or matching placebo) was administered at least 30 minutes prior to eating. On Day 8, blood samples of 6 mL each were collected at 8 am, and 30, 60, 150 and 300 minutes thereafter. Plasma concentrations of betahistine and its metabolite 2-PAA were determined by high-performance liquidy chromatography.
# [9] = human, cited from earlier work
# [10] = intranasal single and repeated dose
compound,measurement,setting,value
CNCCc1ccccn1 [betahistine],plasma half-life,"[1]; betahistine, humans",180 to 240 min
same,Cmax,"[1]; human, oral betahistine 24 mg, Chen et al.",< 0.5 ng/mL
same,absolute bioavailability,"[1]; orally administered betahistine, estimated (SmPC)",around 1%
same,AUC/Dose,[2]; intranasal 5 mg (0.07 mg/kg),3.01 (h · ng/mL)/(mg/kg)
same,AUC/Dose,[2]; intranasal 10 mg (0.15 mg/kg),3.67 (h · ng/mL)/(mg/kg)
same,AUC/Dose,[2]; intranasal 20 mg (0.29 mg/kg),5.60 (h · ng/mL)/(mg/kg)
same,AUC/Dose,[2]; intranasal 40 mg (0.57 mg/kg),6.21 (h · ng/mL)/(mg/kg)
same,test article-related clinical signs,"[3]; intranasal 80 mg single dose and repeated dose 240 mg/day, transient",mild to moderate salivation
same,"body weights, clinical pathology and gross necropsy findings",[3]; [10],unremarkable
same,microscopic findings,[3]; [10],No adverse treatment-related microscopic findings
same,"hematology, biochemistry, urinalysis, vital signs and electrocardiogram assessments",[4]; active- versus placebo-treated subjects,no differences
same,tolerability,"[4]; intranasal 5, 10, 20 and 40 mg",well tolerated
same,half-life,[5],< 60 min
same,AUC,[5]; 0.07 mg/kg,0.209 ng·h/mL
same,AUC,[5]; 0.15 mg/kg,0.533 ng·h/mL
same,AUC,[5]; 0.29 mg/kg,1.61 ng·h/mL
same,AUC,[5]; 0.57 mg/kg,3.53 ng·h/mL
same,AUC(0-inf),[5]; 5 mg,0.277 ng·h/mL
same,AUC(0-t),[5]; 5 mg,0.209 ng·h/mL
same,Cmax,[5]; 5 mg,0.638 ng/mL
same,Tmax,[5]; 5 mg,12.5 min
same,half-life,[5]; 5 mg,12.5 min
same,AUC(0-inf),[5]; 10 mg,0.697 ng·h/mL
same,AUC(0-t),[5]; 10 mg,0.533 ng·h/mL
same,Cmax,[5]; 10 mg,2.11 ng/mL
same,Tmax,[5]; 10 mg,10 min
same,half-life,[5]; 10 mg,53 min
same,AUC(0-inf),[5]; 20 mg,1.63 ng·h/mL
same,AUC(0-t),[5]; 20 mg,1.61 ng·h/mL
same,Cmax,[5]; 20 mg,4.11 ng/mL
same,Tmax,[5]; 20 mg,10 min
same,half-life,[5]; 20 mg,31.1 min
same,AUC(0-inf),[5]; 40 mg,2.94 ng·h/mL
same,AUC(0-t),[5]; 40 mg,3.53 ng·h/mL
same,Cmax,[5]; 40 mg,10.5 ng/mL
same,Tmax,[5]; 40 mg,7.5 min
same,half-life,[5]; 40 mg,55.6 min
same,peak concentration in plasma,[5]; intranasal 20 mg,4.1 ng/mL
same,peak concentration in plasma,[5]; intranasal 40 mg,10.5 ng/mL
same,decline of plasma concentration,[6],more than 90%
same,bioavailability with intranasal administration higher than with oral administration,[7],20-40 times
same,relative bioavailability fold factor,[7]; 40 mg intranasal vs. 48 mg per os,41.1 ×
same,relative bioavailability of oral vs. intranasal,[7]; Barak et al. oral AUC vs Example 3 intranasal AUC,approximately 2.4%
same,Rel. Bioavail.,[7]; intranasal 5 mg relative to oral 48 mg (Barak et al.),19.9
same,Rel. Bioavail.,[7]; intranasal 10 mg relative to oral 48 mg (Barak et al.),24.2
same,Rel. Bioavail.,[7]; intranasal 20 mg relative to oral 48 mg (Barak et al.),37.0
same,Rel. Bioavail.,[7]; intranasal 40 mg relative to oral 48 mg (Barak et al.),41.1
same,AUC/Dose,[8],0.15 (h · ng/mL)/(mg/kg)
same,AUC,"[9]; oral 48 mg (0.8 mg/kg), Barak et al. data",0.121 ng·h/mL
same,AUC(0-5h),"[9]; oral 48 mg t.i.d., approximately 0.8 mg/kg, Day 8, Barak et al.",0.121 ng·h/mL
